Tests used:
[1] = background statement; cited from earlier work
[2] = solubility of the products in solvents; format: physicochemical

Row | SMILES | solubility in water and organic solvents [1] | solubility in dimethyl sulfoxide ([2]; solvent dimethyl sulfoxide) | solubility in dimethylformamide ([2]; solvent dimethylformamide) | solubility in ethanol ([2]; solvent ethanol)
1 | O=C1NC(c2ccccc2)=C/C1=C1/C=C(c2ccccc2)NC1=O [formula (b), bipyrrolinonylidene] | poor solubility | – | – | –
2 | CCOC(=O)C1=C(c2ccccc2)NC(=O)/C1=C1/C(=O)NC(c2ccccc2)=C1C(=O)OCC [diethyl bipyrrolinonylidenedicarboxylate] | – | soluble | soluble | slightly soluble
